Test results as given in patent US8153784B2, “Imaging of enzyme activity” (The General Hospital Corporation, priority 2004, dated 2012).

Columns and labels:
HRP = biological target: T1, HRP (Armoracia rusticana, UniProt P00433); assay: HRP effect over T1, well plate with different HRP amounts; assay type: biochemical, horseradish; conditions: for lowest enzyme activity level with detectable decrease in T1 / decrease in T1: 0.5 mM; for T1: C = 0.5 mM
T1 construct: purchased Sigma
T1 sequence (P00433 31-338): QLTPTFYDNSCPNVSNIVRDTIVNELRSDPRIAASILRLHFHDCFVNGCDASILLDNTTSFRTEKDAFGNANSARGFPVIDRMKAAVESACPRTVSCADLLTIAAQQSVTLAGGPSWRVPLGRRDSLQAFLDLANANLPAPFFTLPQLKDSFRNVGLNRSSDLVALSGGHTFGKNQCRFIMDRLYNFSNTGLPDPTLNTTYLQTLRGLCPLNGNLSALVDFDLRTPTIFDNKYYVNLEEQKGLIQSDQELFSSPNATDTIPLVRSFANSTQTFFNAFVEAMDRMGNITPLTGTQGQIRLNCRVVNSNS
Method: MR imaging was performed on a 1.5 T GE Excite whole body MR scanner using a 3 inch surface coil. T1-weighted images were obtained using a spin echo sequence with TR=500 ms, TE=11 ms, NEX=4.
To estimate the detection limit of these sensor substrates, a new well plate layout containing a fixed concentration of 1Gd^3+ (0.5 mM, row b1) and 2Gd^3+ (0.5 mM, row b2) supplemented with different HRP amounts (from left to right: 4, 0.4, 0.04, 0.004 U) was imaged (FIG. 10B). The use of 4 U/mL of enzyme yielded a decrease in T1 by 50 and 25% for compounds 1Gd^3+ and 2Gd^3+, respectively. Detectable decrease could be seen at enzyme specific activity levels as low as 0.04 U/mL. In this case the decrease was measured to be 15% for compound 1Gd^3+ and 12% for compound 2Gd^3+.

[1] = biological target: T2, human myeloperoxidase (MPO) (Homo sapiens, UniProt P05164); conditions: in vitro settings; reference (9); cited from earlier work
T2 construct: purchased BioDesign Inc

[2] = biological target: T3, horseradish peroxidase (HRP) (Armoracia rusticana, UniProt P00433); assay: HRP-mediated oligomerization of 1Gd^3+ and 2Gd^3+: relaxivity, MALDI-MS; assay type: biochemical; design: purchased Sigma; conditions: for increase in relaxivity in the presence of peroxidase: 96-well plate image, 4 units HRP, DPBS; for increase in [r1p]: 0.47T and 40° C.
T3 sequence (P00433 31-338): T1 sequence (P00433 31-338)
Method: (§1) Relaxation times at 0.47 T was obtained on a Bruker NMS-120 Minispec spectrometer using an inversion recovery sequence, with a TR=5T1, and 15 TI points evenly spaced up to 5T1.
(§2) Relaxation times at 1.5 T was measured on a 1.5 T GE Excite MR scanner utilizing an inversion recovery sequences with TR=2000 ms, TI=50, 75, 100, 150, 200, 250, 300, 350, 400, 500, 625, 750, 1000 ms. A fixed-size region of interest was drawn to obtain the signal intensity of the samples.
(§3) The data at 0.47 T and 1.5 T were fitted to the equation Ix=I0*(1−2e^[…]) to obtain T1, where I is the signal obtained at a certain time point TI, with I0 (total signal or magnetization) and T1 being fitted values.
Horseradish peroxidase was purchased from Sigma as a lyophilized powder that was dissolved in PBS buffer (4 mg/mL) and its activity was measured using substantially the same the methods described by Klebanoff, S. J.; Waltersdorph, A. M.; Rosen, H. Meth Enzymol. 1984 Vol. 105, p 399-403.
Oligomerization of compounds 1Gd^3+ and 2Gd^3+ was achieved by incubating the desired solution (0.5 mL) of monomer with an excess of H2O2 3% (2 μL) and HRP (1 μg≈4 Units) for 1 hour at 40° C. Both T1 and T2 were measured at two different field strengths: 0.47T and 1.5T, this last one using a clinical magnet (1.5 T Signa, GE).
(§4) The relaxivities of various polymerized products were measured using a minimum of four different gadolinium complex concentrations ranging from 2.5 mM to 0.01 mM. Horseradish peroxidase (HRP) was used in the proof-of-the-principle experiments. As used herein, the descriptors 1Gd^3+ and 2Gd^3+ refer to Gd^3+-chelated compounds 1 and 2, respectively. The synthesis of 1Gd^3+ and 2Gd^3+ are described in the Examples.

plasma proteins = assay: Substrate binding to plasma components (Biospin P-6 elution with 111In tracer); assay type: in vitro ADME; conditions: human plasma; eluting experiments
Method: The follow experiments were performed to determine the effect of MPO-activated substrate oligomerization with plasma proteins to form larger aggregate. Human plasma was extracted from healthy donors by the use of Polymorphprep (Accurate Chemicals) and centrifugation according to the manufacturer's instructions. Aliquots of 3 mM solution of bis-5-HT-DTPA(Gd) was mixed with aliquots of ^111In-bis-5-HT-DTPA as a tracer, with or without human plasma and with and without MPO/H2O2. […] Radioactivity retained in the columns and the eluted material were counted separately in 1480 Wizard gamma counter (Perkin-Elmer) and the fraction of radioactivity bound to proteins was calculated (n=3 independent experiments).

[3] = Relaxivity of monomeric Gd complexes without enzyme; assay type: physicochemical; conditions: for r1p (0.47T, 40°) / r1p (1.5T, 25°): no HRP
Method: Stock solutions of compounds 1Gd and 2Gd were prepared by dissolving the corresponding complexes in DPBS buffer solution (pH 7.4) and were kept at −4° in the dark. Every stock solution was titrated by means of ICP-MS (Elemental Research Inc.).
as §1, §2, §3, §4

T2 sequence (P05164 279-745 limits assumed): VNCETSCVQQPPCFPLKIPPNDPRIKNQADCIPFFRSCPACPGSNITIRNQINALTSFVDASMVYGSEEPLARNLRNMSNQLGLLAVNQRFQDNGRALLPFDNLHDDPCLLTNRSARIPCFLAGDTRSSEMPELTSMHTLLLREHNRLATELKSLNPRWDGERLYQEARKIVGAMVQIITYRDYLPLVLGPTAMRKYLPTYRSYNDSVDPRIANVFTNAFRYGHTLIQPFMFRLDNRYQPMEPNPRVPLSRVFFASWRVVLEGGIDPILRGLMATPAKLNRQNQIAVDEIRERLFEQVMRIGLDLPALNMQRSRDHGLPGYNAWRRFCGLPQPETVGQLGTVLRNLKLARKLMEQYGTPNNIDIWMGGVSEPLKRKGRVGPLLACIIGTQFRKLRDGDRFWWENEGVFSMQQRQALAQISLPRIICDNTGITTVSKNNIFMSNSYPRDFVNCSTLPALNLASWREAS
T2 sequence (P05164 165-273 limits assumed): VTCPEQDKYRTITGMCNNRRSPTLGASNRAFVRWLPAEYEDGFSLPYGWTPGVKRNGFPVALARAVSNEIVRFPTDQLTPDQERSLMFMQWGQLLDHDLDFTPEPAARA

Row | SMILES | lowest enzyme activity level with detectable decrease in T1 (HRP) | decrease in T1 (HRP; 0.04 U/mL of enzyme) | decrease in T1 (HRP; 4 U/mL of enzyme) | T1 (HRP; HRP 0 U) | T1 (HRP; HRP 4 10-1 U) | T1 (HRP; HRP 4 10-2 U) | T1 (HRP; HRP 4 10-3 U) | T1 (HRP; HRP 4 U) | time of MPO activation and oligomerization to reach 90% completion [1] | increase in relaxivity in the presence of peroxidase [2] | increase in [r1p] ([2]; HRP) | increase in relaxivity ([2]; HRP, 1.5T, 25°, concentrations below 0.5 mM used for fitting) | minimum increase in relaxivity ([2]; HRP, 1.5T, 25°, predicted from the obtained data) | minimum relaxivity increase ([2]; pH=7.4 (PBS buffer), 0.47T, 'in an embodiment', enzyme not stated) | binding of MPO-activated oligomers to plasma proteins compared to the substrate itself (plasma proteins) | r1p (0.47T, 40°) ([3]; H2O pH = 4.8) | r1p (0.47T, 40°) ([3]; PBS pH = 7.4) | r1p (1.5T, 25°) ([3]; PBS pH = 7.4) | r1 ([3]; well plate at 1.5T, pH 7.2, no enzyme (row 1)) | increase in relaxivity ([2]; HRP, 1.5T clinical MRI unit at 25°)
1 | O=C([O-])CN(CCN(CC(=O)[O-])CC(=O)NCCc1c[nH]c2ccc(O)cc12)CCN(CC(=O)[O-])CC(=O)NCCc1c[nH]c2ccc(O)cc12.[Gd+3] [2Gd^3+] | 0.04 U/mL | 12% | 25% | 339 ms | 278 ms | 303 ms | 331 ms | 271 ms | about 15 minutes | 30% | 2.4 fold | 1.4 fold | ≥ 30% | ≥ 40% | over 3 fold | 4.5 mM⁻¹ s⁻¹ | ~4.3 mM⁻¹ s⁻¹ | 5.1 mM⁻¹ s⁻¹ | 4.7 mM⁻¹ s⁻¹ | –
2 | CC(C(=O)NCC(=O)NCCc1c[nH]c2ccc(O)cc12)N1CCN(CC(=O)[O-])CCN(CC(=O)[O-])CCN(CC(=O)[O-])CC1.[Gd+3] (stereo not shown) [5-HT-DOTA(Gd), Glycylmethyl DOTA(Gd) 5-Hydroxytryptamide] | – | – | – | – | – | – | – | – | about 15 minutes | – | – | – | – | – | – | – | – | – | – | –
3 | O=C([O-])CN(CCN(CC(=O)[O-])CC(=O)NCCc1ccc(O)cc1)CCN(CC(=O)[O-])CC(=O)NCCc1ccc(O)cc1.[Gd+3] [1Gd^3+] | 0.04 U/mL | 15% | 50% | 316 ms | 229 ms | 274 ms | 321 ms | 211 ms | – | 70% | 3.7 fold | – | – | – | – | 4.6 mM⁻¹ s⁻¹ | ~4.3 mM⁻¹ s⁻¹ | 5.3 mM⁻¹ s⁻¹ | – | 1.7 fold
